Test results: PubChem BioAssay (NCI)
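The compound was tested at five concentrations on cells cultured in 96-well plates, with a 48-hour exposure period. At the GI50, growth is halved. At the TGI there is no net growth.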

Key:
Experiment in all cases: NCI-60 cell line screen, 48 h
SK-MEL-2 melanoma = test system: SK-MEL-2 melanoma
M14 melanoma = test system: M14 melanoma
NCI-H23 lung = test system: NCI-H23 lung
HCC-2998 colon = test system: HCC-2998 colon
U251 CNS = test system: U251 CNS
TK-10 renal = test system: TK-10 renal
NCI-H226 lung = test system: NCI-H226 lung
HOP-62 NSCLC = test system: HOP-62 NSCLC
MALME-3M melanoma = test system: MALME-3M melanoma
SNB-75 CNS = test system: SNB-75 CNS
PC-3 prostate = test system: PC-3 prostate
SK-OV-3 ovarian = test system: SK-OV-3 ovarian
SR leukemia = test system: SR leukemia
UO-31 renal = test system: UO-31 renal
HL-60(TB) leukemia = test system: HL-60(TB) leukemia
HT29 colon = test system: HT29 colon
SNB-19 CNS = test system: SNB-19 CNS
OVCAR-3 ovarian = test system: OVCAR-3 ovarian
BT-549 breast = test system: BT-549 breast
ACHN renal = test system: ACHN renal
HOP-92 NSCLC = test system: HOP-92 NSCLC
SN12C renal = test system: SN12C renal
DU-145 prostate = test system: DU-145 prostate
MOLT-4 leukemia = test system: MOLT-4 leukemia
UACC-257 melanoma = test system: UACC-257 melanoma
OVCAR-4 ovarian = test system: OVCAR-4 ovarian
MCF7 breast = test system: MCF7 breast
RPMI-8226 leukemia = test system: RPMI-8226 leukemia
HCT-15 colon = test system: HCT-15 colon
OVCAR-5 ovarian = test system: OVCAR-5 ovarian
OVCAR-8 ovarian = test system: OVCAR-8 ovarian
K-562 leukemia = test system: K-562 leukemia
MDA-N = test system: MDA-N
786-0 renal = test system: 786-0 renal
SK-MEL-28 melanoma = test system: SK-MEL-28 melanoma
HCT-116 colon = test system: HCT-116 colon
EKVX NSCLC = test system: EKVX NSCLC
NCI-H522 lung = test system: NCI-H522 lung
SF-539 CNS = test system: SF-539 CNS
CCRF-CEM leukemia = test system: CCRF-CEM leukemia
RXF 393 renal = test system: RXF 393 renal
SF-295 CNS = test system: SF-295 CNS
SF-268 CNS = test system: SF-268 CNS
IGROV1 ovarian = test system: IGROV1 ovarian
COLO 205 colon = test system: COLO 205 colon
SW-620 colon = test system: SW-620 colon
CAKI-1 renal = test system: CAKI-1 renal
NCI/ADR-RES ovarian = test system: NCI/ADR-RES ovarian
UACC-62 melanoma = test system: UACC-62 melanoma
NCI-H460 lung = test system: NCI-H460 lung
A549 NSCLC = test system: A549 NSCLC
SK-MEL-5 melanoma = test system: SK-MEL-5 melanoma
T-47D breast = test system: T-47D breast
HS 578T breast = test system: HS 578T breast
MDA-MB-231 breast = test system: MDA-MB-231 breast
A498 renal = test system: A498 renal
KM12 colon = test system: KM12 colon
MDA-MB-435 = test system: MDA-MB-435
LOX IMVI melanoma = test system: LOX IMVI melanoma

CN(C)CCCNC(=O)c1c(-c2cccnc2)cnc2ccccc12
TGI (SK-MEL-2 melanoma): > 100 µM | TGI (M14 melanoma): > 100 µM | TGI (NCI-H23 lung): > 100 µM | TGI (HCC-2998 colon): > 100 µM | TGI (U251 CNS): > 100 µM | TGI (TK-10 renal): > 100 µM | TGI (NCI-H226 lung): > 100 µM | TGI (HOP-62 NSCLC): > 100 µM | TGI (MALME-3M melanoma): > 100000 nM | TGI (SNB-75 CNS): > 100 µM | TGI (PC-3 prostate): > 100 µM | TGI (SK-OV-3 ovarian): > 100 µM | TGI (SR leukemia): > 100 µM | TGI (UO-31 renal): > 100 µM | TGI (HL-60(TB) leukemia): > 100000 nM | TGI (HT29 colon): > 100 µM | TGI (SNB-19 CNS): > 100 µM | TGI (OVCAR-3 ovarian): > 100 µM | TGI (BT-549 breast): > 100 µM | TGI (ACHN renal): > 100 µM | TGI (HOP-92 NSCLC): > 100000 nM | TGI (SN12C renal): > 100 µM | TGI (DU-145 prostate): > 100000 nM | TGI (MOLT-4 leukemia): > 100000 nM | TGI (UACC-257 melanoma): > 100 µM | TGI (OVCAR-4 ovarian): > 100 µM | TGI (MCF7 breast): > 100 µM | TGI (RPMI-8226 leukemia): > 100000 nM | TGI (HCT-15 colon): > 100 µM | TGI (OVCAR-5 ovarian): > 100000 nM | TGI (OVCAR-8 ovarian): > 100 µM | TGI (K-562 leukemia): > 100 µM | TGI (MDA-N): > 100000 nM | TGI (786-0 renal): > 100 µM | TGI (SK-MEL-28 melanoma): > 100 µM | TGI (HCT-116 colon): > 100 µM | TGI (EKVX NSCLC): > 100 µM | TGI (NCI-H522 lung): > 100 µM | TGI (SF-539 CNS): > 100 µM | TGI (CCRF-CEM leukemia): > 100 µM | TGI (RXF 393 renal): > 100000 nM | TGI (SF-295 CNS): > 100 µM | TGI (SF-268 CNS): > 100 µM | TGI (IGROV1 ovarian): > 100 µM | TGI (COLO 205 colon): > 100 µM | TGI (SW-620 colon): > 100000 nM | TGI (CAKI-1 renal): > 100 µM | TGI (NCI/ADR-RES ovarian): > 100 µM | TGI (UACC-62 melanoma): > 100 µM | TGI (NCI-H460 lung): > 100 µM | TGI (A549 NSCLC): > 100 µM | TGI (SK-MEL-5 melanoma): > 100000 nM

Cc1ccc(C(=Nc2ccccc2)N=P(c2ccccc2)(c2ccccc2)c2ccccc2)cc1
GI50 (SK-MEL-2 melanoma): 1310 nM | TGI (SK-MEL-2 melanoma): 5.44 µM | GI50 (M14 melanoma): 1810 nM | TGI (M14 melanoma): 8.77 µM | GI50 (NCI-H23 lung): 3.11 µM | TGI (NCI-H23 lung): 12.5 µM | GI50 (HCC-2998 colon): 1220 nM | TGI (HCC-2998 colon): 3.72 µM | GI50 (U251 CNS): 1150 nM | GI50 (TK-10 renal): 1180 nM | TGI (TK-10 renal): 4.14 µM | GI50 (NCI-H226 lung): 1570 nM | TGI (NCI-H226 lung): 9.38 µM | GI50 (HOP-62 NSCLC): 2140 nM | GI50 (MALME-3M melanoma): 288 nM | TGI (MALME-3M melanoma): 946 nM | GI50 (T-47D breast): 1240 nM | GI50 (HS 578T breast): 1480 nM | TGI (HS 578T breast): 7.84 µM | GI50 (SNB-75 CNS): 2440 nM | TGI (SNB-75 CNS): 14.8 µM | GI50 (PC-3 prostate): 1740 nM | TGI (PC-3 prostate): 4.04 µM | GI50 (SK-OV-3 ovarian): 1980 nM | TGI (SK-OV-3 ovarian): 5.22 µM | GI50 (SR leukemia): 1670 nM | TGI (SR leukemia): 14.9 µM | GI50 (UO-31 renal): 1320 nM | TGI (UO-31 renal): 3.8 µM | GI50 (HL-60(TB) leukemia): 235 nM | TGI (HL-60(TB) leukemia): 593 nM | GI50 (HT29 colon): 1150 nM | TGI (HT29 colon): > 36.8 µM | GI50 (SNB-19 CNS): 2120 nM | GI50 (OVCAR-3 ovarian): 1120 nM | GI50 (BT-549 breast): 1540 nM | TGI (BT-549 breast): 3.96 µM | GI50 (ACHN renal): 1340 nM | TGI (HOP-92 NSCLC): 1400 nM | GI50 (SN12C renal): 1410 nM | TGI (SN12C renal): 9 µM | GI50 (DU-145 prostate): 2090 nM | GI50 (MOLT-4 leukemia): 328 nM | TGI (MOLT-4 leukemia): 1290 nM | GI50 (MDA-MB-231 breast): 2210 nM | TGI (MDA-MB-231 breast): 7.75 µM | GI50 (UACC-257 melanoma): 1320 nM | TGI (UACC-257 melanoma): 3.74 µM | GI50 (OVCAR-4 ovarian): 1530 nM | TGI (OVCAR-4 ovarian): > 31 µM | GI50 (MCF7 breast): 1430 nM | TGI (MCF7 breast): 4.85 µM | GI50 (RPMI-8226 leukemia): 1180 nM | TGI (RPMI-8226 leukemia): 2860 nM | GI50 (HCT-15 colon): 1220 nM | GI50 (OVCAR-5 ovarian): 2980 nM | GI50 (A498 renal): 1720 nM | TGI (A498 renal): 5.32 µM | GI50 (OVCAR-8 ovarian): 3.34 µM | TGI (OVCAR-8 ovarian): > 100 µM | GI50 (K-562 leukemia): 4.22 µM | TGI (K-562 leukemia): > 100 µM | GI50 (786-0 renal): 1710 nM | TGI (786-0 renal): 4.29 µM | GI50 (SK-MEL-28 melanoma): 1630 nM | TGI (SK-MEL-28 melanoma): 10 µM | GI50 (HCT-116 colon): 986 nM | TGI (HCT-116 colon): 3.92 µM | GI50 (EKVX NSCLC): 1440 nM | GI50 (NCI-H522 lung): 1440 nM | TGI (NCI-H522 lung): 9.73 µM | GI50 (SF-539 CNS): 2180 nM | TGI (SF-539 CNS): 8.68 µM | GI50 (CCRF-CEM leukemia): 2510 nM | TGI (CCRF-CEM leukemia): 6.5 µM | GI50 (KM12 colon): 1070 nM | TGI (KM12 colon): 4.71 µM | GI50 (RXF 393 renal): 695 nM | TGI (RXF 393 renal): 2520 nM | GI50 (SF-295 CNS): 875 nM | TGI (SF-295 CNS): 7.12 µM | GI50 (SF-268 CNS): 1790 nM | GI50 (IGROV1 ovarian): 621 nM | TGI (IGROV1 ovarian): 4.96 µM | GI50 (COLO 205 colon): 833 nM | TGI (COLO 205 colon): 2.32 µM | GI50 (SW-620 colon): 1260 nM | GI50 (MDA-MB-435): 955 nM | TGI (MDA-MB-435): 3.23 µM | GI50 (CAKI-1 renal): 1820 nM | GI50 (NCI/ADR-RES ovarian): 3.61 µM | GI50 (LOX IMVI melanoma): 949 nM | TGI (LOX IMVI melanoma): 4.28 µM | GI50 (UACC-62 melanoma): 1190 nM | TGI (UACC-62 melanoma): 5.07 µM | GI50 (NCI-H460 lung): 1220 nM | TGI (NCI-H460 lung): 4.23 µM | GI50 (A549 NSCLC): 1430 nM | TGI (A549 NSCLC): 15 µM | GI50 (SK-MEL-5 melanoma): 739 nM | TGI (SK-MEL-5 melanoma): 1930 nM

CN(C)CCOc1ccc2[nH]c(C(=O)N3CC(CCl)c4c3cc(NC(=O)OCc3ccc([N+](=O)[O-])cc3)c3ccccc43)cc2c1 (stereo not drawn)
TGI (M14 melanoma): 2.88 µM | TGI (HCC-2998 colon): > 100 µM | TGI (U251 CNS): > 100 µM | TGI (TK-10 renal): > 100 µM | TGI (NCI-H226 lung): 3.72 µM | TGI (MALME-3M melanoma): 2860 nM | TGI (UO-31 renal): 2.56 µM | TGI (SN12C renal): 2.95 µM | TGI (DU-145 prostate): 1900 nM | TGI (MDA-MB-231 breast): 3.23 µM | TGI (UACC-257 melanoma): > 100 µM | TGI (HCT-15 colon): 3.58 µM | TGI (OVCAR-5 ovarian): 2950 nM | TGI (MDA-N): 2860 nM | TGI (786-0 renal): 2.09 µM | TGI (SK-MEL-28 melanoma): 3.06 µM | TGI (HCT-116 colon): 2.17 µM | TGI (EKVX NSCLC): 3.14 µM | TGI (SF-539 CNS): 2.99 µM | TGI (COLO 205 colon): 3.29 µM | TGI (SW-620 colon): 2610 nM | TGI (UACC-62 melanoma): 5.36 µM | TGI (NCI-H460 lung): > 100 µM | TGI (A549 NSCLC): 2.52 µM | TGI (SK-MEL-5 melanoma): 2760 nM
